Assay results: US20110245284A1, “Alkoxy- and Alkylthio-Substituted Anilinopyrimidines” (Bayer CropScience AG, priority 2008, published 2011)

Key:
[1] = logP by LC-MS on reversed-phase columns (C 18), method [b], acidic range pH 2.7; format: physicochemical; conditions: pH 2.7, log p
Procedure: (§1) The logP values were determined in accordance with EEC Directive 79/831 Annex V.A8 by HPLC (High Performance Liquid Chromatography) on reversed-phase columns (C 18), using the methods below:
[b] The LC-MS determination in the acidic range is carried out at pH 2.7 using the mobile phases 0.1% aqueous formic acid and acetonitrile (contains 0.1% formic acid), linear gradient from 10% acetonitrile to 95% acetonitrile.

Pyrenophora teres = Pyrenophora teres test (barley) / protective; format: in vivo; conditions: 192 h, active compound concentration 500 ppm, evaluation 8 days after inoculation, read-out: efficacy
Procedure: After the spray coating has dried on, the plants are sprayed with a spore suspension of Pyrenophora teres. The plants remain in an incubation cabinet for 48 hours at 20° C. and 100% relative atmospheric humidity.

Venturia inaequalis = test: Venturia test (apple) / protective; format: in vivo; conditions: 240 h, active compound concentration 100 ppm, evaluation 10 days after inoculation, read-out: efficacy
Procedure: After the spray coating has dried on, the plants are inoculated with an aqueous conidia suspension of the apple scab pathogen Venturia inaequalis and then remain for 1 day in an incubation cabinet at about 20° C. and 100% relative atmospheric humidity.

Leptosphaeria nodorum = Leptosphaeria nodorum test (wheat) / protective; format: in vivo; conditions: Parastagonospora nodorum, active compound concentration 500 ppm, evaluation 7-9 days after inoculation, read-out: efficacy
Procedure: Thereafter, the plants are placed in a greenhouse at 90% relative atmospheric humidity and a temperature of 22° C.

Pyricularia oryzae = test: whole plant or invertebrate; format: in vivo; conditions: 120 h, read-out: efficacy
Alternaria solani = test: Alternaria test (tomato) / protective; format: in vivo; conditions: 72 h, active compound concentration 100 ppm, evaluation 3 days after inoculation, read-out: efficacy
Procedure: The plants are then placed in an incubation cabinet at about 20° C. and 100% relative atmospheric humidity.

Sphaerotheca fuliginea = test: Sphaerotheca test (cucumber) / protective; format: in vivo; conditions: Podosphaera fuliginea, 168 h, active compound concentration 500 ppm, evaluation 7 days after inoculation, read-out: efficacy
Procedure: The plants are subsequently placed in a greenhouse at 70% relative atmospheric humidity and a temperature of 23° C.

Rhizoctonia solani = test: Rhizoctonia test (rice) / protective; format: in vivo; conditions: 96 h, active compound concentration 250 ppm, evaluation 4 days after inoculation, read-out: efficacy
[2] = logP by HPLC on reversed-phase columns (C 18), method [a], acidic range pH 2.3; format: physicochemical; conditions: pH 2.3, logP (pH2.3)
Procedure: as §1
[a] The determination is carried out in the acidic range at pH 2.3 using the mobile phases 0.1% aqueous phosphoric acid and acetonitrile, linear gradient from 10% acetonitrile to 95% acetonitrile.

[3] = logP by LC-MS on reversed-phase columns (C 18), method [c], neutral range pH 7.8; format: physicochemical; conditions: pH 7.8
Procedure: as §1
[c] The LC-MS determination in the neutral range is carried out at pH 7.8 using the mobile phases 0.001 molar aqueous ammonium bicarbonate solution and acetonitrile, linear gradient from 10% acetonitrile to 95% acetonitrile.

Cochliobolus miyabeanus = test: Cochliobolus test (rice) / protective; conditions: Bipolaris oryzae, in Oryza sativa, 96 h, read-out: efficacy
Procedure: Cochliobolus Test (Rice)/Protective • Solvent: 28.5 parts by weight of acetone • Emulsifier: 1.5 parts by weight of alkylaryl polyglycol ether
1 day after the treatment, the plants are inoculated with an aqueous spore suspension of Cochliobolus miyabeanus. The plants are then placed in a greenhouse at 100% relative atmospheric humidity and 25° C.
Evaluation is carried out 4 days after the inoculation.

CSC(C)c1cccc(Nc2ncc(Br)c(NC3CCC3)n2)c1 (centres unmarked) [Example 13]
chromatographic logP [1]: 3.07
pest or weed control at 500 ppm (Pyrenophora teres): ≥ 70%
pest or weed control at 100 ppm (Venturia inaequalis): ≥ 70%
pest or weed control at 500 ppm (Leptosphaeria nodorum): ≥ 70%
pest or weed control at 250 ppm (Pyricularia oryzae): ≥ 80%
pest or weed control at 100 ppm (Alternaria solani): ≥ 70%
pest or weed control at 500 ppm (Sphaerotheca fuliginea): ≥ 70%

CSC(C)c1cccc(Nc2ncc(Cl)c(NC3CCC3)n2)c1 (centres unmarked) [Example 14]
chromatographic logP [1]: 2.82
pest or weed control at 500 ppm (Pyrenophora teres): ≥ 70%
pest or weed control at 100 ppm (Venturia inaequalis): ≥ 70%
pest or weed control at 250 ppm (Rhizoctonia solani): ≥ 80%
pest or weed control at 500 ppm (Leptosphaeria nodorum): ≥ 70%
pest or weed control at 250 ppm (Pyricularia oryzae): ≥ 80%
pest or weed control at 100 ppm (Alternaria solani): ≥ 70%

CCCSc1cccc(Nc2ncc(Cl)c(NC(C)C)n2)c1 [Example 31, 5-Chloro-N^4-(propan-2-yl)-N^2-[3-(propylsulphanyl)phenyl]pyrimidine-2,4-diamine]
chromatographic logP [2]: 3.27
chromatographic logP [1]: 3.3
pest or weed control at 250 ppm (Rhizoctonia solani): ≥ 80%
pest or weed control at 500 ppm (Leptosphaeria nodorum): ≥ 70%
pest or weed control at 500 ppm (Sphaerotheca fuliginea): ≥ 70%

CCSCc1cccc(Nc2ncc(Cl)c(NC(C)C)n2)c1 [Example 33]
chromatographic logP [1]: 2.61
pest or weed control at 500 ppm (Pyrenophora teres): ≥ 70%
pest or weed control at 100 ppm (Venturia inaequalis): ≥ 70%
pest or weed control at 500 ppm (Leptosphaeria nodorum): ≥ 70%
pest or weed control at 100 ppm (Alternaria solani): ≥ 70%
pest or weed control at 500 ppm (Sphaerotheca fuliginea): ≥ 70%

CCCS(=O)(=O)c1cccc(Nc2ncc(C(F)(F)F)c(NC3CCC3)n2)c1 [Example 34, N^4-Cyclobutyl-N^2-[3-(propylsulphonyl)phenyl]-5-(trifluoromethyl)pyrimidine-2,4-diamine]
chromatographic logP [2]: 3.46
chromatographic logP [1]: 3.46
pest or weed control at 250 ppm (Rhizoctonia solani): ≥ 80%
pest or weed control at 500 ppm (Leptosphaeria nodorum): ≥ 70%
pest or weed control at 500 ppm (Sphaerotheca fuliginea): ≥ 70%

CCC[S+]([O-])c1cccc(Nc2ncc(C(F)(F)F)c(NC3CCC3)n2)c1 (centres unmarked) [Example 35]
chromatographic logP [1]: 2.97
pest or weed control at 100 ppm (Venturia inaequalis): ≥ 70%
pest or weed control at 500 ppm (Leptosphaeria nodorum): ≥ 70%
pest or weed control at 100 ppm (Alternaria solani): ≥ 70%
pest or weed control at 500 ppm (Sphaerotheca fuliginea): ≥ 70%

CCCSc1cccc(Nc2ncc(Cl)c(NC3CC3C)n2)c1 (centres unmarked) [Example 63]
chromatographic logP [1]: 3.58
pest or weed control at 100 ppm (Venturia inaequalis): ≥ 70%
pest or weed control at 500 ppm (Leptosphaeria nodorum): ≥ 70%
pest or weed control at 100 ppm (Alternaria solani): ≥ 70%

COCc1cccc(Nc2ncc(Cl)c(NC3CC3C)n2)c1 (centres unmarked) [Example 65]
chromatographic logP [3]: 3.3
chromatographic logP [1]: 2.03
pest or weed control at 100 ppm (Venturia inaequalis): ≥ 70%
pest or weed control at 500 ppm (Leptosphaeria nodorum): ≥ 70%
pest or weed control at 100 ppm (Alternaria solani): ≥ 70%

COCCOc1cccc(Nc2ncc(Cl)c(NC3CCC3)n2)c1 [Example 66]
chromatographic logP [1]: 2.12
pest or weed control at 500 ppm (Pyrenophora teres): ≥ 70%
pest or weed control at 100 ppm (Venturia inaequalis): ≥ 70%
pest or weed control at 500 ppm (Leptosphaeria nodorum): ≥ 70%
pest or weed control at 250 ppm (Pyricularia oryzae): ≥ 80%
pest or weed control at 100 ppm (Alternaria solani): ≥ 70%

CCS(=O)(=O)C(C)c1cccc(Nc2ncc(Cl)c(NC3CC3)n2)c1 (centres unmarked) [Example 75]
chromatographic logP [1]: 2.54
pest or weed control at 500 ppm (Pyrenophora teres): ≥ 70%
pest or weed control at 500 ppm (Leptosphaeria nodorum): ≥ 70%
pest or weed control at 250 ppm (Cochliobolus miyabeanus): ≥ 80%
pest or weed control at 250 ppm (Pyricularia oryzae): ≥ 80%
pest or weed control at 500 ppm (Sphaerotheca fuliginea): ≥ 70%

COCCOc1ccc(Nc2ncc(C(F)(F)F)c(NC3CC3)n2)cc1 [Example 82]
chromatographic logP [3]: 3.06
chromatographic logP [1]: 2.3
pest or weed control at 500 ppm (Pyrenophora teres): ≥ 70%
pest or weed control at 500 ppm (Leptosphaeria nodorum): ≥ 70%
pest or weed control at 250 ppm (Cochliobolus miyabeanus): ≥ 80%
pest or weed control at 250 ppm (Pyricularia oryzae): ≥ 80%

CCNc1nc(Nc2cccc(COC)c2)ncc1Cl [Example 95]
chromatographic logP [3]: 2.84
chromatographic logP [1]: 1.47
pest or weed control at 500 ppm (Leptosphaeria nodorum): ≥ 70%
pest or weed control at 250 ppm (Cochliobolus miyabeanus): ≥ 80%
pest or weed control at 250 ppm (Pyricularia oryzae): ≥ 80%

CCC1CC1Nc1nc(Nc2cccc(COC)c2)ncc1Cl (centres unmarked) [Example 108]
chromatographic logP [1]: 2.46
pest or weed control at 500 ppm (Leptosphaeria nodorum): ≥ 70%
pest or weed control at 250 ppm (Cochliobolus miyabeanus): ≥ 80%
pest or weed control at 250 ppm (Pyricularia oryzae): ≥ 80%

CCS(=O)(=O)c1cccc(Nc2ncc(Br)c(NC3CCC3)n2)c1 [Example 111]
chromatographic logP [3]: 3.06
chromatographic logP [1]: 2.36
pest or weed control at 100 ppm (Venturia inaequalis): ≥ 70%
pest or weed control at 500 ppm (Leptosphaeria nodorum): ≥ 70%
pest or weed control at 100 ppm (Alternaria solani): ≥ 70%
pest or weed control at 500 ppm (Sphaerotheca fuliginea): ≥ 70%

CCS(=O)(=O)c1cccc(Nc2ncc(Cl)c(NC3CC3)n2)c1 [Example 113]
chromatographic logP [3]: 2.48
chromatographic logP [1]: 1.87
pest or weed control at 500 ppm (Pyrenophora teres): ≥ 70%
pest or weed control at 100 ppm (Venturia inaequalis): ≥ 70%
pest or weed control at 500 ppm (Leptosphaeria nodorum): ≥ 70%
pest or weed control at 100 ppm (Alternaria solani): ≥ 70%
pest or weed control at 500 ppm (Sphaerotheca fuliginea): ≥ 70%

CCS(=O)(=O)c1cccc(Nc2ncc(C(F)(F)F)c(NC3CCC3)n2)c1 [Example 118]
chromatographic logP [3]: 3.23
chromatographic logP [1]: 3.07
pest or weed control at 500 ppm (Pyrenophora teres): ≥ 70%
pest or weed control at 100 ppm (Venturia inaequalis): ≥ 70%
pest or weed control at 500 ppm (Leptosphaeria nodorum): ≥ 70%
pest or weed control at 100 ppm (Alternaria solani): ≥ 70%
pest or weed control at 500 ppm (Sphaerotheca fuliginea): ≥ 70%

CC[S+]([O-])c1cccc(Nc2ncc(C(F)(F)F)c(NC3CCC3)n2)c1 (centres unmarked) [Example 119]
chromatographic logP [3]: 2.81
chromatographic logP [1]: 2.61
pest or weed control at 500 ppm (Pyrenophora teres): ≥ 70%
pest or weed control at 100 ppm (Venturia inaequalis): ≥ 70%
pest or weed control at 500 ppm (Leptosphaeria nodorum): ≥ 70%
pest or weed control at 100 ppm (Alternaria solani): ≥ 70%
pest or weed control at 500 ppm (Sphaerotheca fuliginea): ≥ 70%

CCC(c1cccc(Nc2ncc(Cl)c(NC3CC3)n2)c1)S(=O)(=O)CC (centres unmarked) [Example 120]
chromatographic logP [3]: 2.83
chromatographic logP [1]: 1.94
pest or weed control at 100 ppm (Venturia inaequalis): ≥ 70%
pest or weed control at 500 ppm (Leptosphaeria nodorum): ≥ 70%
pest or weed control at 100 ppm (Alternaria solani): ≥ 70%
pest or weed control at 500 ppm (Sphaerotheca fuliginea): ≥ 70%

CCCCS(=O)(=O)c1cccc(Nc2ncc(Br)c(NC3CC3)n2)c1 [Example 125]
chromatographic logP [3]: 3.32
chromatographic logP [1]: 2.81
pest or weed control at 100 ppm (Venturia inaequalis): ≥ 70%
pest or weed control at 500 ppm (Leptosphaeria nodorum): ≥ 70%
pest or weed control at 100 ppm (Alternaria solani): ≥ 70%

CCC(C)SC(C)c1cccc(Nc2ncc(Cl)c(NC3CC3)n2)c1 (centres unmarked) [Example 133]
chromatographic logP [3]: 5.08
chromatographic logP [1]: 3.79
pest or weed control at 500 ppm (Pyrenophora teres): ≥ 70%
pest or weed control at 100 ppm (Venturia inaequalis): ≥ 70%
pest or weed control at 500 ppm (Leptosphaeria nodorum): ≥ 70%
pest or weed control at 100 ppm (Alternaria solani): ≥ 70%
pest or weed control at 500 ppm (Sphaerotheca fuliginea): ≥ 70%

CC(C)C[S+]([O-])c1cccc(Nc2ncc(Cl)c(NC3CC3)n2)c1 (centres unmarked) [Example 162]
chromatographic logP [3]: 2.81
chromatographic logP [1]: 2.11
pest or weed control at 500 ppm (Leptosphaeria nodorum): ≥ 70%
pest or weed control at 100 ppm (Alternaria solani): ≥ 70%

CCC(C)S(=O)(=O)C(C)c1cccc(Nc2ncc(Cl)c(NC3CC3)n2)c1 (centres unmarked) [Example 163]
chromatographic logP [3]: 3.16
chromatographic logP [1]: 2.16
pest or weed control at 500 ppm (Pyrenophora teres): ≥ 70%
pest or weed control at 100 ppm (Venturia inaequalis): ≥ 70%
pest or weed control at 500 ppm (Leptosphaeria nodorum): ≥ 70%
pest or weed control at 100 ppm (Alternaria solani): ≥ 70%
pest or weed control at 500 ppm (Sphaerotheca fuliginea): ≥ 70%

CCC(C)[S+]([O-])C(C)c1cccc(Nc2ncc(Cl)c(NC3CC3)n2)c1 (centres unmarked) [Example 164]
chromatographic logP [3]: 2.79
chromatographic logP [1]: 2
pest or weed control at 500 ppm (Pyrenophora teres): ≥ 70%
pest or weed control at 100 ppm (Venturia inaequalis): ≥ 70%
pest or weed control at 500 ppm (Leptosphaeria nodorum): ≥ 70%
pest or weed control at 100 ppm (Alternaria solani): ≥ 70%
pest or weed control at 500 ppm (Sphaerotheca fuliginea): ≥ 70%

CCCC[S+]([O-])c1cccc(Nc2ncc(Cl)c(NC3CCC3)n2)c1 (centres unmarked) [Example 171]
chromatographic logP [3]: 3.31
chromatographic logP [1]: 2.48
pest or weed control at 100 ppm (Venturia inaequalis): ≥ 70%
pest or weed control at 500 ppm (Leptosphaeria nodorum): ≥ 70%
pest or weed control at 100 ppm (Alternaria solani): ≥ 70%

CCC[S+]([O-])c1cccc(Nc2ncc(Cl)c(NC3CC3)n2)c1 (centres unmarked) [Example 205]
chromatographic logP [3]: 2.47
chromatographic logP [1]: 1.8
pest or weed control at 500 ppm (Pyrenophora teres): ≥ 70%
pest or weed control at 100 ppm (Venturia inaequalis): ≥ 70%
pest or weed control at 500 ppm (Leptosphaeria nodorum): ≥ 70%
pest or weed control at 100 ppm (Alternaria solani): ≥ 70%
pest or weed control at 500 ppm (Sphaerotheca fuliginea): ≥ 70%
